Experimental data reported in patent EP2771349B1, “BIO[…] FOR DETERMINATION OF PEPTIDE BINDING” (Iogenetics, LLC., priority 2011, dated 2013).

Experiment: Principal components analysis of amino acid physical properties from 31 studies
Details: for Prin1: first principal component, index of amino acid polarity or hydrophobicity, most hydrophobic highest; for Prin2: second principal component, related to size or volume, smallest has highest score; for Prin3: third principal component
Text: In some cases, principal components of amino acids are utilized to accurately predict binding affinities of sub-sequences of amino acids within the proteins to all MHC-I and MHC-II receptors. Principal Components Analysis is a mathematical process that is used in many different scientific fields and which reduces the dimensionality of a set of data. (Bishop, C.M., Neural Networks for Pattern Recognition. Oxford University Press, Oxford 1995. Bouland, H. and Kamp,Y., Biological Cybernetics 1988. 59: 291-294.). Derivation of principal components is a linear transformation that locates directions of maximum variance in the original input data, and rotates the data along these axes. Typically, the first several principal components contain the most information. Principal components is particularly useful for large datasets with many different variables. Using principal components provides a way to picture the structure of the data as completely as possible by using as few variables as possible. For n original variables, n principal components are formed as follows: The first principal component is the linear combination of the standardized original variables that has the greatest possible variance. Each subsequent principal component is the linear combination of the standardized original variables that has the greatest possible variance and is uncorrelated with all previously defined components. Further, the principal components are scale-independent in that they can be developed from different types of measurements. For example, datasets from HPLC retention times (time units) or atomic radii ([…]) can be consolidated to produce principal components. Another characteristic is that principal components are weighted appropriately for their respective contributions to the response and one common use of principal components is to develop appropriate weightings for regression parameters in multivariate regression analysis. Outside the field of immunology, principal components analysis (PCA) is most widely used in regression analysis. Initial tests were conducted using the principal components in a multiple regression partial least squares (PLS) approach (Wold, S., Sjorstrom,M., and Eriksson,L., Chemometrics and Intelligent Laboratory Systems 2001. 58: 109-130.). Principal component analysis can be represented in a linear network. PCA can often extract a very small number of components from quite high-dimensional original data and still retain the important structure.
Accordingly, in some cases physical properties of amino acids are used for subsequent analysis. The compiled physical properties are available at a proteomics resource website (expasy.org/tools/protscale.html). In some cases, the data for each of the 20 different amino acids from these studies are tabulated, resulting in 20 x 31 different datapoints, each providing a unique estimate of a physical characteristic of that amino acid. The power of principal component analysis lies in the fact that the results of all of these studies can be combined to produce a set of mathematical properties of the amino acids which have been derived by a wide array of independent methodologies. The patterns derived in this way are similar to those of Wold et. al. but the absolute numbers are different. The physicochemical properties derived in the studies used for this calculation are shown in (Table 2). […] All subsequent work described herein is based on use of the first three principal components.
From this it can be seen that the first principal component (Prin1) is an index of amino acid polarity or hydrophobicity; the most hydrophobic amino acids have the highest numerical value. The second principal component (Prin2) is related to the size or volume of the amino acid, with the smallest having the highest score. […]

Structure (SMILES): CC(N)C(=O)O (stereo not drawn) [A]
- Prin1: 0.72
- Prin2: 2.48
- Prin3: 1.42

Structure (SMILES): NC(CC(=O)O)C(=O)O (stereo not drawn) [D]
- Prin1: -6.04
- Prin2: 0.03
- Prin3: -0.18

Structure (SMILES): NC(CCC(=O)O)C(=O)O (stereo not drawn) [E]
- Prin1: -5.70
- Prin2: 0.34
- Prin3: -1.46

Structure (SMILES): NCC(=O)O [G]
- Prin1: -0.76
- Prin2: 3.08
- Prin3: 1.21

Structure (SMILES): NC(Cc1c[nH]cn1)C(=O)O (stereo not drawn) [H]
- Prin1: -2.55
- Prin2: -1.00
- Prin3: -1.94

Structure (SMILES): NCCCCC(N)C(=O)O (stereo not drawn) [K]
- Prin1: -6.68
- Prin2: -1.32
- Prin3: 1.16

Structure (SMILES): NC(=O)CC(N)C(=O)O (stereo not drawn) [N]
- Prin1: -4.35
- Prin2: 0.21
- Prin3: 0.30

Structure (SMILES): O=C(O)C1CCCN1 (stereo not drawn) [P]
- Prin1: -0.03
- Prin2: -0.36
- Prin3: 1.87

Structure (SMILES): NC(=O)CCC(N)C(=O)O (stereo not drawn) [Q]
- Prin1: -3.97
- Prin2: -0.47
- Prin3: 0.15

Structure (SMILES): N=C(N)NCCCC(N)C(=O)O (stereo not drawn) [R]
- Prin1: -6.30
- Prin2: -2.93
- Prin3: -0.91

Structure (SMILES): CC(O)C(N)C(=O)O (stereo not drawn) [T]
- Prin1: -1.42
- Prin2: 0.80
- Prin3: 0.94
